According to US6407124B1, “Carbon substituted aminothiazole inhibitors of cyclin dependent kinases” (Bristol-Myers Squibb Company, priority 1998, dated 2002):

melting point [°C] | Structure (SMILES)
239 to 240 | CCOC(=O)/C=C/c1cnc(NC(C)=O)s1 [Example 1, Ethyl 3-((E)-2-acetamido-thiazol-5-yl)-acrylate]
275 | CC(=O)Nc1ncc(/C=C/c2ncc(C(C)(C)C)o2)s1 [Example 2, N-[(E)-5-(2-(5-t-butyl-oxazol-2-yl)-vinyl)-thiazol-2-yl]-acetamide]
